Measured values reported in paper PMC6109769, “Calmodulin Enhances Cryptochrome Binding to INAD in Drosophila Photoreceptors” (Frontiers in Molecular Neuroscience, 2018).

What was measured:
CaM [1] = target: T1, CaM (Xenopus laevis, UniProt P0DP33); assay: ITC global fit of single titrations and competition experiment (Scheme 5), 5 mM CaCl2; assay type: binding; conditions: calculated from global fit Scheme 5
T1 construct: (His)6 (N); made in house; host or cells: Escherichia coli BL21
Description: (§1) Peptide titrations were performed at 25°C using a high-sensitivity VP-isothermal titration calorimetry (ITC) microcalorimeter (MicroCal LLC, Northampton, MA, USA). The reference cell was filled with deionized water. Protein and peptide solutions were prepared by diluting concentrated stock solutions in the reaction buffer (50 mM TrisHCl, pH 7.5, 150 mM NaCl, in the absence or in the presence of 5 mM CaCl2). Apo-protein and peptide solutions were devoid of Ca^2+ ions, as determined by inductively coupled plasma emission spectroscopy, as previously described (Merloni et al., [2014]). […]
(§2) Integrated heat data obtained for each titration were fitted using a nonlinear least-squares minimization algorithm to a theoretical titration curve, using AFFINImeter^2, using both the independent sites and the stoichiometric equilibria approach. ΔH (reaction enthalpy change, cal mol^−1) and Ka (binding constant, M^−1) were the thermodynamic fitting parameters. […] The reaction entropy was calculated using the relationships ΔG = −RTlnKa (R = 1.9872 cal mol^−1 K^−1, T = 298 K) and ΔG = ΔH − TΔS. […] The reliability of the obtained fits was evaluated using the Goodness of Fit (GoF) parameter.
The reaction was monitored using ITC. […]

CaM [2] = target: T1, CaM; assay: ITC titration of peptide into Ca2+-loaded CaM (5 mM CaCl2), single-curve fits; assay type: binding; conditions: calculated, T = 298 K
Description: as §1, §2

CaM-dCRY complex = assay type: binding, Xenopus laevis; conditions: ITC, 5 mM CaCl2; INAD peptide 800 μM over CaM 40 μM + dCRY peptide 40 μM (1:1)
Description: Peptide titrations were performed at 25°C using a high-sensitivity VP-isothermal titration calorimetry (ITC) microcalorimeter (MicroCal LLC, Northampton, MA, USA). The reference cell was filled with deionized water. Protein and peptide solutions were prepared by diluting concentrated stock solutions in the reaction buffer (50 mM TrisHCl, pH 7.5, 150 mM NaCl, in the absence or in the presence of 5 mM CaCl2). Apo-protein and peptide solutions were devoid of Ca^2+ ions, as determined by inductively coupled plasma emission spectroscopy, as previously described (Merloni et al., [2014]). Each experiment started with a small injection of 1–2 μL, which was discarded from the analysis of the integrated data, in order to avoid artifacts due to the diffusion through the injection port occurring during the long equilibration period, locally affecting the protein concentration near the syringe needle tip. Care was taken to start the first addition after baseline stability had been achieved. […] To allow the system to reach equilibrium, a spacing of 300 s was applied between each ligand injection.
The reaction was monitored using ITC. […] A fit of the integrated heat data, however, is quite complex, as the binding curve represents the sum of the contributions of the multiple binding isotherms deriving from the different equilibria involved. […]

What does the source list for `CC[C@H](C)[C@H](NC(=O)[C@H](CCCCN)NC(=O)[C@H](C)NC(=O)[C@H](CCSC)NC(=O)[C@@H](NC(=O)[C@H](Cc1ccc(O)cc1)NC(=O)CNC(=O)[C@H](Cc1ccccc1)NC(C)=O)[C@@H](C)O)C(=O)N[C@@H](CC(N)=O)C(=O)N[C@@H](CCCCN)C(=O)N[C@@H](CCCNC(=N)N)C(=O)N[C@@H](Cc1ccc(O)cc1)C(=O)N[C@@H](CC(N)=O)C(=O)N[C@@H](CCSC)C(N)=O` [INAD230–243]?
ΔSINAD, global fit (CaM [1]): +4.42 cal mol^−1 K^−1; ΔS (INAD) (CaM [2]): −11.3 cal mol^−1 K^−1; heat of reaction on titration of INAD over CaM preincubated with dCRY (CaM-dCRY complex): absence of significant heat of reaction
